Assay results as given in ChEMBL document CHEMBL3769405, “Discovery of Potent and Selective Inhibitors of Phosphodiesterase 1 for the Treatment of Cognitive Impairment Associated with Neurodegenerative and Neuropsychiatric Diseases” (J Med Chem, 2016).

Legend:
[1] = Selectivity ratio of Ki for recombinant full lenght human PDE4A to bovine brain PDE1
[2] = Inhibition of bovine brain PDE1 using fluorescent labeled cGMP as substrate after 15 mins by IMAP assay; set-up: species or system Bos taurus
[3] = molecular target: 3',5'-cyclic-AMP phosphodiesterase 4A (Homo sapiens, UniProt P27815); assay: Inhibition of recombinant full lenght human PDE4A using fluorescent labeled cAMP as substrate after 15 mins by IMAP assay
Chain of 3',5'-cyclic-AMP phosphodiesterase 4A (P27815 whole entry): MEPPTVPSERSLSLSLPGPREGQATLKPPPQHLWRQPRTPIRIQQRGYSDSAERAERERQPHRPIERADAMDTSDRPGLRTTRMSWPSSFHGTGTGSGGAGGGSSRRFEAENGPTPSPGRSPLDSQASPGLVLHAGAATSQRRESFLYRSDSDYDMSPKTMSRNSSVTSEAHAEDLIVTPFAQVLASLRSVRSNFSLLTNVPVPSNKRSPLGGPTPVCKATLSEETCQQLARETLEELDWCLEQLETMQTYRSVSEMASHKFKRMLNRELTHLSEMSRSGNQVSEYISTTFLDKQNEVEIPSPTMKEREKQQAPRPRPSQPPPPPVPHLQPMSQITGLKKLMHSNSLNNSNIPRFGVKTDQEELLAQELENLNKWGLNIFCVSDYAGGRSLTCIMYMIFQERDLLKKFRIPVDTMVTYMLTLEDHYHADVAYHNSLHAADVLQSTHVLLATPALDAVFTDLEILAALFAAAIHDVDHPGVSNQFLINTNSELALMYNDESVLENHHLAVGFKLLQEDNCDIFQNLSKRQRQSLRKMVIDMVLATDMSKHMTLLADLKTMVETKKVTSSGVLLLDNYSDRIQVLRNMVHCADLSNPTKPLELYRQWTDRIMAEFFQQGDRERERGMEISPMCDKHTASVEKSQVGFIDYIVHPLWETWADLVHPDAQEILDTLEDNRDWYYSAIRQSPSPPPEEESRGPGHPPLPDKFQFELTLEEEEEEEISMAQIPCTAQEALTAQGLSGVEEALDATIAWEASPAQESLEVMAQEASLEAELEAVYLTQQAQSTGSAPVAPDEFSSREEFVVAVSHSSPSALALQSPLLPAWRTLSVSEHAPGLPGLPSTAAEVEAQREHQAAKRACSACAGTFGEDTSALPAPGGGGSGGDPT

[4] = Intrinsic clearance in human liver microsomes; assay type: ADME; settings: read-out: CLH
[5] = Cmax in C57BL/6 mouse brain at 10 mg/kg administered through oral gavage; assay type: ADME, organism-based; set-up: dose 10 mg/kg, route oral
[6] = Solubility of compound in PBS; assay type: physicochemical
[7] = Lipophilicity, logD of compound at pH 7.4; assay type: physicochemical; settings: buffer
[8] = Lipophilicity, logD of compound at pH 1.7; assay type: physicochemical; settings: buffer
[9] = AUClast in C57BL/6 mouse plasma at 10 mg/kg administered through oral gavage; assay type: ADME, organism-based; set-up: dose 10 mg/kg, time 0 - last, route oral
[10] = Cmax in C57BL/6 mouse plasma at 10 mg/kg administered through oral gavage; assay type: ADME, organism-based; set-up: dose 10 mg/kg, route oral
[11] = AUClast in C57BL/6 mouse brain at 10 mg/kg administered through oral gavage; assay type: ADME, organism-based; set-up: dose 10 mg/kg, time 0 - last, route oral
in vivo = settings: C57BL/6, mouse, brain/plasma

| SMILES | Ratio Ki [1] | Ki [2] | Ki [3] | also measured |
| --- | --- | --- | --- | --- |
| CN1C(=O)c2c(nn(Cc3ccc(-c4ccccc4)cc3)c2Nc2ccccc2)N2CC(C)(C)CN=C12 | 2060 | 4.8 nM | 9900 nM |  |
| CN1C(=O)c2c(nn(Cc3ccc(-c4cccc(F)n4)cc3)c2N(C)c2ccccc2)N2C1=N[C@@H]1CCC[C@@H]12 | 24 | 31 nM | 740 nM |  |
| CN1C(=O)c2c(nn(Cc3ccc(-c4cccc(F)n4)cc3)c2Nc2ccccc2)N2C1=N[C@H]1CCC[C@H]12 |  | 5.4 nM |  | CLint scaled [4]: 51 mL/min/kg |
| CN1C(=O)c2c(nn(Cc3ccc(-c4ccccc4)cc3)c2Nc2ccccc2)N2C[C@@H](CO)N=C12 | 683 | 6 nM | 4100 nM |  |
| CN1C(=O)c2c(nn(Cc3ccc(-c4ccccn4)cc3)c2Nc2ccccc2)N2C1=N[C@H]1CCC[C@H]12 |  | 5.3 nM | 8400 nM | CLint scaled [4]: 72 mL/min/kg |
| CN1C(=O)c2c(nn(Cc3ccc(-c4ncccc4F)cc3)c2Nc2ccccc2)N2C1=N[C@@H]1CCC[C@@H]12 | 2740 | 0.073 nM | 200 nM | CLint scaled [4]: 276 mL/min/kg |
| CN1C(=O)c2c(nn(Cc3ccc(-c4cccc(F)n4)cc3)c2N2CCCC2)N2C1=N[C@@H]1CCC[C@@H]12 | 29 | 160 nM | 4600 nM |  |
| C[C@@H]1CN2C(=N1)N(C)C(=O)c1c2nn(Cc2ccc(-c3ccccc3)cc2)c1Nc1ccccc1 | 1030 | 3.3 nM | 3400 nM |  |
| CN1C(=O)c2c(nn(Cc3ccc(-c4cccc(F)n4)cc3)c2NC2CCCCC2)N2C1=N[C@@H]1CCC[C@@H]12 | 571 | 2.8 nM | 1600 nM |  |
| CN1C(=O)c2c(nn(Cc3ccc(-c4cc(F)ccn4)cc3)c2Nc2ccccc2)N2C1=N[C@@H]1CCC[C@@H]12 | 5320 | 0.062 nM | 330 nM | CLint scaled [4]: 218 mL/min/kg |
| CNc1c2c(nn1Cc1ccc(-c3cccc(F)n3)cc1)N1C(=N[C@@H]3CCC[C@@H]31)N(C)C2=O | 154 | 28 nM | 4300 nM |  |
| CN1Cc2c(nn(Cc3ccc(-c4ccccn4)cc3)c2Nc2ccccc2)N2C1=N[C@@H]1CCC[C@@H]12 | 720 | 25 nM | 18000 nM | CLint scaled [4]: 59 mL/min/kg |
| CN1C(=O)c2c(nn(Cc3ccc(C4CCCN4C)cc3)c2Nc2ccccc2)N2C1=N[C@@H]1CCC[C@@H]12 (stereo partly specified) | 1150 | 2.7 nM | 3100 nM |  |
| CC(C)Nc1c2c(nn1Cc1ccc(-c3cccc(F)n3)cc1)N1C(=N[C@@H]3CCC[C@@H]31)N(C)C2=O | 458 | 12 nM | 5500 nM |  |
| CN1C(=O)c2c(nn(Cc3ccc(-c4cccc(F)n4)cc3)c2Nc2ccncc2)N2C1=N[C@@H]1CCC[C@@H]12 | 12 | 31 nM | 370 nM |  |
| CN1C(=O)c2c(nn(Cc3ccc(-c4ccccc4)cc3)c2Nc2ccccc2)N2CCCN=C12 | > 1500 | 65 nM | > 100000 nM |  |
| CCCNc1c2c(nn1Cc1ccc(-c3cccc(F)n3)cc1)N1C(=N[C@@H]3CCC[C@@H]31)N(C)C2=O | 413 | 15 nM | 6200 nM |  |
| O=C1NC2=N[C@@H]3CCC[C@@H]3N2c2nn(Cc3ccc(C(F)(F)F)cc3)c(Nc3ccccc3)c21 | 2 | 290 nM | 550 nM | CLint scaled [4]: 22 mL/min/kg |
| CCCC(C)Nc1c2c(nn1Cc1ccc(-c3cccc(F)n3)cc1)N1C(=N[C@@H]3CCC[C@@H]31)N(C)C2=O (stereo partly specified) | 2000 | 1.3 nM | 2600 nM |  |
| CN1C(=O)c2c(nn(Cc3ccc(-c4cccc(F)n4)cc3)c2N(C)C)N2C1=N[C@@H]1CCC[C@@H]12 | 9.2 | 120 nM | 1100 nM |  |

| SMILES | Ratio Ki [1] | Ki [2] | Ki [3] | also measured |
| --- | --- | --- | --- | --- |
| C[C@H]1CN=C2N(C)C(=O)c3c(nn(Cc4ccc(-c5ccccc5)cc4)c3Nc3ccccc3)N21 | 3750 | 8 nM | 30000 nM |  |
| CN1C(=O)c2c(nn(Cc3ccc(S(C)(=O)=O)cc3)c2Nc2ccccc2)N2C1=N[C@@H]1CCC[C@@H]12 | 133 | 0.49 nM | 65 nM |  |
| CN1C(=O)c2c(nn(Cc3ccc(-c4ccc(F)cn4)cc3)c2Nc2ccccc2)N2C1=N[C@@H]1CCC[C@@H]12 | 6760 | 0.074 nM | 500 nM | CLint scaled [4]: 125 mL/min/kg |
| CN1C(=O)c2c(nn(Cc3ccc(-c4cccc(F)n4)cc3)c2NC2CCCC2)N2C1=N[C@@H]1CCC[C@@H]12 | 229 | 24 nM | 5500 nM |  |
| CN1C(=O)c2c(Nc3ccccc3)nn(CC3CCCC3)c2N2C1=N[C@@H]1CCC[C@@H]12 | 2.6 | 770 nM | 2000 nM |  |
| CN1C(=O)c2c(nn(Cc3ccc(-c4cccc(F)n4)cc3)c2N)N2C1=N[C@@H]1CCC[C@@H]12 | 414 | 5.8 nM | 2400 nM |  |
| CN1C(=O)c2c(nn(Cc3ccc(-c4ccc(F)cc4)cc3)c2Nc2ccccc2)N2C1=N[C@@H]1CCC[C@@H]12 | 1120 | 0.41 nM | 460 nM |  |
| CN1C(=O)c2c(nn(Cc3ccc(-c4ccccc4)cc3)c2Nc2ccccc2)N2CCN=C12 | 1520 | 29 nM | 44000 nM |  |
| CN1C(=O)c2c(nn(Cc3ccc(-c4cccc(F)n4)cc3)c2NCc2ccccc2)N2C1=N[C@@H]1CCC[C@@H]12 | 816 | 4.9 nM | 4000 nM |  |
| CC(C)CNc1c2c(nn1Cc1ccc(-c3cccc(F)n3)cc1)N1C(=N[C@@H]3CCC[C@@H]31)N(C)C2=O | 851 | 7.4 nM | 6300 nM |  |
| CN1C(=O)c2c(nn(Cc3ccc(-c4ccccc4)cc3)c2Nc2ccccc2)N2CC(C3CCOC3)N=C12 (stereo unspecified) | 857 | 14 nM | 12000 nM |  |
| CN1C(=O)c2c(Nc3ccccc3)n[nH]c2N2C1=N[C@@H]1CCC[C@@H]12 | 7 | 1400 nM |  |  |
| CN1C(=O)c2c(nn(Cc3ccc(C4CCCN4)cc3)c2Nc2ccccc2)N2C1=N[C@@H]1CCC[C@@H]12 (stereo partly specified) | 750 | 1.6 nM | 1200 nM |  |
| CN1Cc2c(nn(Cc3ccc(C(F)(F)F)cc3)c2Nc2ccccc2)N2C1=N[C@@H]1CCC[C@@H]12 | 841 | 44 nM | 37000 nM | CLint scaled [4]: 64 mL/min/kg |
| CN1C(=N)c2c(nn(Cc3ccc(C(F)(F)F)cc3)c2Nc2ccccc2)N2C1=N[C@@H]1CCC[C@@H]12 | 6.4 | 2800 nM | 18000 nM | CLint scaled [4]: 32 mL/min/kg |
| CN1C(=O)c2c(nn(Cc3ccc(-c4ccccc4)cc3)c2Nc2ccccc2)N2C[C@@H](COCc3ccccc3)N=C12 | > 400 | 250 nM | > 100000 nM |  |
| CN1C(=O)c2c(nn(Cc3ccc(S(N)(=O)=O)cc3)c2Nc2ccccc2)N2C1=N[C@@H]1CCC[C@@H]12 | 857 | 1.4 nM | 1200 nM | Cmax [5]: 16 ng/mL; solubility [6]: > 100 µM; logD [7]: 1.96; logD [8]: -0.96; AUC(0-t) [9]: 785 ng·h/mL; Cmax [10]: 650 ng/mL; AUC(0-t) [11]: 15 ng·h/mL; Kp (in vivo): 0.02 |
| CN1C(=O)c2c(nn(Cc3ccc(-c4cccc(F)n4)cc3)c2Nc2ccccc2)N2C1=N[C@@H]1CCC[C@@H]12 [LENRISPODUN] |  | 0.15 nM |  |  |
| CN1C(=O)c2c(nn(Cc3ccc(-c4ccccc4)cc3)c2Nc2ccccc2)N2C[C@@H](Cc3ccccc3)N=C12 | 33 | 390 nM | 13000 nM |  |
| CC(C)[C@@H]1CN2C(=N1)N(C)C(=O)c1c2nn(Cc2ccc(-c3ccccc3)cc2)c1Nc1ccccc1 | 652 | 2.3 nM | 1500 nM |  |
